Test results from PubChem BioAssay (NCI).
Where “and” joins values, the source holds several entries; their conditions need not be identical. Equal entries are not always repeated.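 Growth conditions: 96-well plates. Treatment: test compound, 48 hours, 5 concentrations. Analysis: linear interpolation between bracketing concentrations; unreached endpoints set to highest concentration. The concentration for 50% growth inhibition is given as GI50. Definition used: TGI = concentration required for complete inhibition of growth.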

Assays:
Assay in all cases: DTP human tumour cell line panel, 48 h
[1] = test system: SW-620 colon
[2] = test system: M14 melanoma
[3] = test system: DU-145 prostate
[4] = test system: SF-295 CNS
[5] = test system: NCI/ADR-RES ovarian
[6] = test system: IGROV1 ovarian
[7] = test system: OVCAR-8 ovarian
[8] = test system: COLO 205 colon
[9] = test system: A498 renal
[10] = test system: TK-10 renal

SMILES | GI50 [1] | TGI [1] | GI50 [2] | TGI [2] | GI50 [3] | TGI [3] | GI50 [4] | TGI [4] | GI50 [5] | TGI [5] | GI50 [6] | TGI [6] | GI50 [7] | TGI [7] | GI50 [8] | TGI [8] | GI50 [9] | TGI [9] | GI50 [10] | TGI [10]
O=C(Nc1cnc(C(F)(F)F)cn1)c1cc(Cl)ccc1O | 0.348 µM | > 100 µM | 0.306 µM | 2.46 µM | 0.348 µM | > 100 µM | 0.255 µM | 0.675 µM | 0.279 µM | 13.6 µM | 0.374 µM | > 100 µM | 0.365 µM | 61.8 µM | 1.54 µM | 3.14 µM | 0.235 µM | 0.639 µM | 0.465 µM | > 100 µM
COc1cc(/C=C/[N+](=O)[O-])cc(OC)c1OC | 1.71 µM | 4.16 µM | 2.07 µM | 4.31 µM | 2.69 µM | 6.31 µM | 8.52 µM | 23.8 µM | 3.43 µM | 36.7 µM | 2.45 µM | 7.61 µM | 3.04 µM | 12.1 µM | 1.7 µM | 3.33 µM | 3.31 µM | 14.6 µM | 2.49 µM | 6.07 µM
C[C@H]1c2ccccc2CN1CCCOc1cc2c(cc1OCC1CC1)C1(CCCC1)C(N)=N2 | 0.977 µM | 2.31 µM | 0.932 µM | 1.81 µM | 2.66 µM | 8.63 µM | 1.89 µM | 6.71 µM | 2.84 µM | 10.5 µM | 2.27 µM | 9.11 µM | 2.38 µM | 8.83 µM | 0.842 µM | 1.68 µM | 1.56 µM | 5.69 µM | 2.07 µM | 8.26 µM
OCc1ccc(N2CCCC2)cc1Cl | 10.7 µM | > 100 µM | > 100 µM | > 100 µM | 34.4 µM | > 100 µM | 1.78 µM | 37.4 µM | 34.9 µM | > 100 µM | 0.452 µM | 2 µM | 46 µM | > 100 µM | 2.01 µM | 5.11 µM | 0.147 µM | 0.289 µM | 0.201 µM | 0.556 µM
O=C(NN1C(=O)CSC1c1ccc(F)cc1)C(O)c1ccccc1 (stereo not drawn) | > 100 µM | > 100 µM | > 100 µM | > 100 µM | > 100 µM | > 100 µM | > 100 µM | > 100 µM | > 100 µM | > 100 µM | > 100 µM | > 100 µM | > 100 µM | > 100 µM | > 100 µM | > 100 µM | > 100 µM | > 100 µM | > 100 µM | > 100 µM
O=NN(CCCl)C(=O)NC1CCC(=O)NC1=O (stereo not drawn) |  | 270 µM |  | 905 µM |  | 1060 µM |  | 331 µM |  | 710 µM |  | 1140 µM |  | 293 µM |  | 684 µM |  | 470 µM |  | 1050 µM
C=CCn1c(=O)c2cnc(Nc3ccc(N4CCN(C)CC4)cc3)nc2n1-c1cccc(C(C)(C)O)n1 | 0.316 µM and 0.448 µM | 12.3 µM and > 10 µM | 0.191 µM and 0.213 µM | 11.2 µM and > 5.86 µM | 0.872 µM and 0.678 µM | 18 µM and > 10 µM | 0.48 µM and 0.589 µM | 14.4 µM and > 10 µM | 2.19 µM and 2.73 µM | 18.6 µM and > 10 µM | 0.184 µM and 0.225 µM | 15.5 µM and > 5.26 µM | 0.417 µM and 0.526 µM | 2.91 µM and > 7.79 µM | 0.311 µM and 0.623 µM | 2.41 µM and > 6.7 µM | 0.0319 µM and 0.0572 µM | 0.364 µM and 0.448 µM | 0.1 µM and 0.31 µM | 5.94 µM and > 10 µM
CC(=O)O.CC(=O)O.CC(=O)O.CC(=O)O.[Rh].[Rh] | 22 µM | > 100 µM | 27.8 µM | 82.5 µM | 47.9 µM | > 100 µM |  |  | 30.2 µM | 92.2 µM | 34 µM | 91.1 µM | 27.6 µM | > 100 µM | 7.3 µM | 30.1 µM | 18.8 µM | 37.2 µM | 18.3 µM | 56.4 µM
C=CCCCOC1[C@H](OCc2ccccc2)C(OCc2ccccc2)C(OC)O[C@@H]1CNC(=O)c1cccc(I)c1 (stereo partly drawn) | 4.62 µM | > 100 µM | 60.2 µM | > 100 µM | 8.52 µM | > 100 µM | 4.14 µM | > 100 µM | 5.26 µM | > 100 µM | 17.7 µM | > 100 µM | 26 µM | > 100 µM | 5.02 µM | > 100 µM | 7.2 µM | 72.8 µM | 5.3 µM | > 100 µM
NCCC(=O)NC(Cc1cnc[nH]1)C(=O)O (stereo not drawn) |  | > 100 µM |  | > 100 µM |  | > 100 µM |  | > 100 µM |  | > 100 µM |  | > 100 µM |  | > 100 µM |  | > 100 µM |  |  |  | > 100 µM
O=C1CSC(c2ccccc2O)N1c1nnc(Cn2ccnc2)o1 (stereo not drawn) | 5.14 µM | 32.4 µM | 7.97 µM | 43.9 µM | 17.5 µM | 56.6 µM | 3.11 µM | > 100 µM | 3.18 µM | 29.6 µM | 16 µM | 37 µM | 17.8 µM | > 100 µM | 12.9 µM | 45.7 µM | 21 µM | 46 µM | 14.1 µM | > 100 µM
Cc1ccc(Sc2oc(-c3ccc(C)cc3)nc2[P+](c2ccccc2)(c2ccccc2)c2ccccc2)cc1 | 0.338 µM | 1.32 µM | 0.403 µM | 1.57 µM | 0.416 µM | 1.48 µM | 0.291 µM | 1.02 µM | 0.49 µM | 2.21 µM |  |  | 0.345 µM | 1.65 µM |  |  | 0.152 µM | 0.842 µM | 0.447 µM | 1.85 µM
N/C(=N\c1nc2ccccc2s1)NC(=NC1CCCCC1)NC1CCCCC1 | 1.65 µM | 3.33 µM | 1.63 µM | 3.31 µM | 1.78 µM | 3.34 µM | 1.64 µM | 3.03 µM | 1.64 µM | 3.3 µM | 1.46 µM | 2.95 µM | 1.97 µM | 4.98 µM | 1.7 µM | 3.6 µM | 1.71 µM | 3.11 µM | 1.64 µM | 3.28 µM
